# “Also recorded” adds a separate entry of the source.
# What was measured:
# [1] = Mouse weights over the two-week treatment period (tolerability); assay type: in vivo; settings: 5-10 mg/kg intravenously, three doses over two weeks
# Procedure: (§1) For in vivo treatments, a 10 mg/mL stock solution of 17S-FD-895 solubilized in DMSO was used. After randomization, AML-engrafted mice were dosed intravenously with 17S-FD-895 (5-10 mg/kg) or vehicle (for AML-08, vehicle control=15% DMSO in PBS; for AML-37, vehicle control=20% DMSO in PBS) three times over a two-week period, with the first dose given on day 1, the second on day 7, and the third on day 14. For preparation of RNA from human LSC-enriched populations, single cell suspensions from spleen and bone marrow were CD34 double-selected (over two LS selection columns, Miltenyi) and 1-2×10^5 cells were collected in lysis buffer or pooled according to treatment group for serial transplantation assays.
# All animal studies were performed in accordance with UCSD and NIH-equivalent ethical guidelines and were approved by the Institutional Animal Care and Use Committee. Three AML PRIMAGRAFT™ models were established from AML LSC-enriched cell fractions (1-2×10^5 CD34^+ cells) transplanted intrahepatically into neonatal Rag2^−/−γc^−/− as previously described (Abrahamsson et al., 2009), or intravenously into sublethally irradiated adult (6-8 weeks old) NOD/SCID-IL2RG mice (NSGS, Jackson Laboratory). […] After treatment, hematopoietic tissues were analyzed as described following. […]
# [2] = system: human CD34+ cells from treated mice (DNAJB1, MCL1, BCL2, BCLX, SF3B1 transcripts); assay: qRT-PCR / RT-PCR of in vivo splicing alterations in CD34-selected human cells from treated AML PRIMAGRAFT mice
# Procedure: as §1
# For qRT-PCR analysis of relative total mRNA expression levels or splice isoform-specific expression analyses, cDNA was synthesized using 50 ng-1 […] of template RNA in 20 μL reaction volumes using the First-Strand SUPERSCRIPT™ III Reverse Transcriptase Supermix (Life Technologies) followed by incubation with RNase H according to the manufacturer's protocol and as described previously. All cDNA products were stored at −20° C. Splice isoform-specific primers for PTK2B-202 were designed to bind to unique exon junctions for this transcript, which lacks exon 24. All primers (Table 2) were diluted to 10 μM working dilutions in DNase/RNase-free water. qRT-PCR was performed in duplicate using cDNA (1 μL reverse transcription product per reaction) on an iCycler (Bio-Rad, Hercules, Calif.) using SYBR® GREENER™ Super Mix (Life Technologies) in 25-μL volume reactions containing 0.2 μM of each forward and reverse primer. Cycling conditions were as follows: 50° C. for 2 minutes, then 95° C. for 8 minutes and 30 seconds, followed by 40 cycles of 95° C. for 15 seconds and 60° C. for 60 seconds. Melting curve analysis was performed on each plate according to the manufacturer's instructions. For standard qRT-PCR, human HPRT mRNA transcript levels were used to normalize Ct values obtained for each gene, and relative expression levels were calculated using the 2^−ddCt method. To ensure validity of results, only Ct values <35 were used in gene expression analyses. All primer sets were tested in a no-template control (NTC) reaction containing only water instead of cDNA, and all gave Ct values >35 in NTC reactions.
# The 17S-FD-895 dosing regimen was selected as the maximum number of doses possible for the treatment of three experimental groups with the amount of synthesized compound that was available, and is consistent with weekly IV dosing regimens used in clinical trials of spliceosome inhibitory compounds in patients with solid tumors. Animals were euthanized within two hours after delivery of the final dose of 17S-FD-895, and peripheral blood, spleens and bone marrows were collected for analysis of total human cell and stem and progenitor cell engraftment, and for RNA extraction for splice isoform-specific qRT-PCR.
# For qRT-PCR analysis of relative total mRNA expression levels or splice isoform-specific expression analyses, cDNA was synthesized using 50 ng-1 […] reaction volumes using the First-Strand SUPERSCRIPT™ III Reverse Transcriptase Supermix (Life Technologies) followed by incubation with RNase H according to the manufacturer's protocol and as described previously (Abrahamsson et al., 2009; Crews et al., 2015). All cDNA products were stored at −20° C. Splice isoform-specific primers for PTK2B-202 were designed to bind to unique exon junctions for this transcript, which lacks exon 24. All primers (Supplemental Experimental Procedures Table) were diluted to 10 ∝M working dilutions in DNase/RNase-free water. qRT-PCR was performed in duplicate using cDNA (1 ∝Λ reverse transcription product per reaction) on an iCycler (Bio-Rad, Hercules, Calif.) using SYBR® GREENER™ Super Mix (Life Technologies) in 25-∝A volume reactions containing 0.2 ∝M of each forward and reverse primer. […]
# [3] = CD34+ cells of individual treated mice versus vehicle
# [4] = pooled CD34+ cells used for serial transplantation
compound,measurement,setting,value
"CC[C@H](OC)[C@@H](C)[C@H]1O[C@@H]1[C@@H](O)[C@H](C)/C=C/C=C(\C)[C@H]1OC(=O)C[C@H](O)CC[C@@](C)(O)[C@@H](OC(C)=O)/C=C/[C@@H]1C (stereo in doubt) [Formula 17S-FD-895, 17S-FD-895]",tolerability / weight changes,[1],"well tolerated, with no significant weight changes detected"
same,BCL2L1-L/S expression ratio,[2]; CD34+ cells of individual treated mice versus control,significant reduction
same,BCL2-L/S expression ratio,[2]; [3],significant reduction
same,MCL1-L/S expression ratio,[2]; [3],significant reduction
same,SF3B1 mRNA expression,"[2]; after treatment, individual mice and pooled samples",unchanged
same,DNAJB1 intron 2 expression / retention,[2]; human CD34+ cells from treated mice versus vehicle,increased DNAJB1 intron 2 expression; also recorded: increased DNAJB1 intron 2 retention
same,"MCL1-L/S expression ratios, pooled cells",[2]; [4],dramatically reduced; also recorded: significantly reduced
same,MCL1 exon 1-3 splicing pattern (RT-PCR),[2]; [4],MCL1 exon skipping and intron inclusion

# Source: US10675267B2, “Methods for detection and eradication of myeloid leukemia stem cells” (priority 2015, dated 2020)
